What was measured:
therapeutic index = format: in vivo
Description: The active concentrations are comprised between 2 and 20 micrograms per ml. […] The range of the active dosages is comprised between 20 and 100 micrograms/kilogram e.v. In vitro, the compound XXXVIII releases the muscles of the aorta of rabbits at concentrations of 50-100 micrograms/ml. The therapeutic index is favourable for an indication of the product as an antispastic of the gastro-intestinal system and the biliary tract.
(§1) The active dosages are comprised between 5 and 20 micrograms/ml in vitro, and from 50 to 500 micrograms/kilogram e.v. The acute toxicity of the compound LI has proven to be extremely low and consequently the therapeutic index is favorable for its use as a spasmolytic of the smooth muscles of the vessels and organs other than vessels.

bowel and vessel muscles [1] = assay: spasmolytic properties on the bowel and vessel muscles in vitro
Description: as §1

bowel and vessel muscles [2] = assay: spasmolytic properties on the bowel and vessel muscles in vivo
Description: as §1

acute toxicity = settings: in vivo
Description: as §1

central nervous system [3] = assay: stimulation of the central nervous system; settings: in vivo
[4] = system: smooth muscles of the vessels; assay: antiserotoninic effects in vivo at the level of the smooth muscles of the vessels; settings: e.v.
dogs = assay: peripheral vasoconstrictive hypertensive action in vivo, in dogs
[5] = system: alpha-adrenergic receptors; assay: stimulation of the alpha-adrenergic receptors; settings: on the basis of the tests carried out
central nervous system [6] = assay: antiserotoninic effects in vivo at the level of the central nervous system; settings: s.c.
[7] = system: muscles of the peripheral vessels; assay: spasmolytic effects in vivo on the muscles of the peripheral vessels; settings: e.v.
Description: as §1

deferent vessel = assay: spasmolytic activity on isolated deferent vessel of rats
Description: as §1

ileum = assay: spasmolytic activity on isolated ileum of guinea pigs
Description: as §1
In addition, the compound IV acts on the trachea of guinea pigs as a releasing agent at the concentration of 0.5-1 microgram/ml. On the ileum of the same animals, as a spasmolytic at a concentration of 50-100 micrograms/ml and on the uterus and stomach of rats as an antiserotoninic at the concentration of 0.05-0.1 micrograms/ml. […] The compound on the basis of the pharmacological and toxicological properties which have been detected can be employed for the treatment of headaches.

CN1C[C@H](COC(=O)N2CCCCCC2)C[C@@H]2c3cccc4[nH]cc(c34)C[C@H]21 [compound XXXVIII, D-6-methyl-8β-(perhydroazepinylcarbonyloxymethyl)-ergoline]
therapeutic index (therapeutic index; as antispastic of the gastro-intestinal system and the biliary tract): favourable

CC(Cc1ccccc1)NC(=O)OC[C@@H]1C[C@@H]2c3cccc4[nH]cc(c34)C[C@H]2N(C)C1 (stereo partly drawn) [compound LI, D-6-methyl-8β-(α-methylphenethylaminocarbonyloxymethyl)-ergoline]
spasmolytic properties on the bowel and vessel muscles (bowel and vessel muscles [1]): retained | therapeutic index (therapeutic index; as spasmolytic of the smooth muscles of the vessels and organs other than vessels): favorable | spasmolytic properties on the bowel and vessel muscles (bowel and vessel muscles [2]): retained | acute toxicity (acute toxicity): extremely low | stimulating effects on the central nervous system (central nervous system [3]): lost the stimulating effects on the central nervous system

CN(C)C(=O)OC[C@@H]1C=C2c3cccc4[nH]cc(c34)C[C@H]2N(C)C1 [compound IV]
active dosages (antiserotoninic, smooth muscles of the vessels) [4]: 5-10 micrograms/kilogram | dose dependence of the vasoconstrictive hypertensive effect (dogs; dogs and cats, e.v.): proportional to the dosage | peripheral vasoconstrictive hypertensive action (dogs; in vivo): strong peripheral vasoconstrictive hypertensive action | action on the alpha-adrenergic receptors [5]: stimulant of the alpha-adrenergic receptors | active dosages (antiserotoninic, central nervous system) (central nervous system [6]): 0.5-1 milligrams/kilograms

CC(Cc1ccccc1)NC(=O)OC[C@@H]1C=C2c3cccc4[nH]cc(c34)C[C@H]2N(C)C1 (stereo partly drawn) [compound XXV, D-6-methyl-8β-(α-methylphenethylaminocarbonyloxymethyl)-9,10-didehydroergoline]
dosages (spasmolytic effects on the muscles of the peripheral vessels) [7]: 20-200 micrograms/kilogram | spasmolytic activity (deferent vessel): considerable spasmolytic activity | spasmolytic activity (ileum): considerable spasmolytic activity | stimulating effects on the central nervous system (central nervous system [3]): interesting actions which stimulated the central nervous system

Source: US4057635A, “Carbamates of ergolines and therapeutic compositions therewith” (Simes Societa Italiana Medicinali e Sintetici S.p.A., priority 1973, dated 1977)
